For the assay, the target named is abnormal prion protein (Ovis aries, UniProt P23907). In kind it is biochemical, sheep.
Chain of abnormal prion protein (P23907 25-233 limits assumed): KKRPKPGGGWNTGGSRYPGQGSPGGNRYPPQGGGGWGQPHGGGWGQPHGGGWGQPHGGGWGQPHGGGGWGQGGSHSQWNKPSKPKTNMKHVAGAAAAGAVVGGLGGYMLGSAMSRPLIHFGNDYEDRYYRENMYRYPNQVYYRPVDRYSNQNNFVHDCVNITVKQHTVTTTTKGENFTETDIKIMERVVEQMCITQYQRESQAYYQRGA

Take `CC(C)C[C@H](N)C(=O)O` [leucine]: the “suppression of proliferation of abnormal prion protein in vitro” value (leucine 15 mg/mL, PMCA) was “effectively suppressed proliferation of abnormal prion protein”. The “bands of PK resistant fragments after PMCA (Western blotting)” value (leucine final concentration 15 mg/mL, up to 10 cycles of incubation-sonication, PK 50 μg/mL) is “no prominent bands were formed”.

Values taken from patent US20070129438A1 (priority 2002, published 2007).
